Data as given in patent US20130263298A1, “MODELS FOR DIAGNOSIS, PREVENTION AND TREATMENT OF ALZHEIMER'S DISEASE” (INDIGO CAPITAL GROUP LLC, priority 2012, published 2013).

How the values were obtained:
Drosophila melanogaster = assay: Phase-I lifespan of yellow-white Drosophila fed dietary supplements; type: in vivo; details: male yellow-white Drosophila, supplement at optimal RDA in diet; for increase in mean survival / longevity: vs. control (36 days)
Protocol: For the phase-I of the study, approximately 1200 male yellow-white Drosophila were bred, isolated and monitored on a daily basis. About 100 fruit flies were tested for each supplement, divided into four vials containing 25 flies each.
In an embodiment of the present invention, a mathematical formula was developed by the inventor for an optimal dosage: Recommended daily human dosage of each supplement per day, divided by 1,000,000 (average weight of a person 50 kg, average weight of 100 flies […]), multiplied by 2 as tubes are used initially for two days, multiplied by 100 as it is assumed only 1% of the food is consumed, multiplied by 4 as bulk food was made for 1 week/8 days. According to the formula, if 100 mg is the recommended human daily dosage of a supplement, the fly dose is 0.08 mg. This was considered optimal required daily allowance (RDA). The supplements were measured on the milligram gemological weighing machine and combined with the regular Drosophila diet (Carolina 424 media, yeast, water) in a temperature controlled insect culture incubator under optimal conditions. 50% survival was calculated by counting the flies that died and transferring the live flies into a different vial with newly made media every two days and near the end, every day. The observations were recorded, calculated, graphed and analysed. Two tailed t-tests were performed to test for statistical significance.

GCLc enzyme = assay: Western Blot test for GCLc enzyme levels in supplement-fed flies; type: in vivo, Drosophila melanogaster; details: optimal dose (3x), 15 days feeding, compared to the control
Protocol: For the phase-III of the experiment, a new set of Drosophila melanogaster were bred for Western blot and Glutathione assays. […] Single, triple, and six times strength for each of the three supplements were added to 25 flies each in vials along with control for 15 days. The flies were then transferred to perform the Western Blot test to check for GCLc enzyme levels for each group. […] Details of the procedure for Western Blot are mentioned below. A western blot is a method that allows investigators to detect a specific protein in a given sample of tissue. The flies were frozen with dry ice, then standardized, lysis buffer added, homogenized and then centrifuged. The proteins were separated by their molecular weight ([…]) by SDS-PAGE, polyacrylamide gel electrophoresis. An 8% acryl amide gel was used. Smaller proteins migrate faster. Samples were loaded into the wells and a voltage of 150 Volts was applied. The proteins were transferred to a PVDF sheet of special blotting paper. The uniformity was checked by the Coomassie stain. […] A digital image of the western blot was captured using fluorescence and analysed.

Glutathione = assay: Fluorometric Glutathione Assay (monochlorobimane) in supplement-fed flies; type: in vivo, Drosophila melanogaster; details: optimal dose (3x), 15 days feeding, compared to the control
Protocol: For the phase-III of the experiment, a new set of Drosophila melanogaster were bred for Western blot and Glutathione assays. […] Single, triple, and six times strength for each of the three supplements were added to 25 flies each in vials along with control for 15 days. The flies were then transferred to perform the Western Blot test to check for GCLc enzyme levels for each group. […] Glutathione Detection Kit from BioVision's ApoGSH was used for an in vitro assay for detection of total glutathione changes in tissue samples. The assay used monochlorobimane (MCB), a dye that appears to form an adduct exclusively with glutathione. […] The reaction was catalysed by glutathione S-transferase. Thus, the amount of total glutathione was detected using a fluorimeter. In an embodiments of the present invention, the kit contents included Cell Lysis Buffer—25 ml, Monochlorobimane (25 mM)—200 μl, GST Reagent (50 U/ml)-200 μl, and GSH Standard (1 mg; MW: 307)—1 Vial. Monochlorobimane was dissolved in DMSO and warmed at a temperature above 18° C. for use. After opening the kit, MCB, GST, and GSH were stored at −20° C. and Cell Lysis Buffer was stored at 4° C. The GSH standard was reconstituted with 100 μl dH2O to generate 10 μg/μl standard stock solution. […] Reading: […] The sample readings were applied to the standard curve to calculate total glutathione amount in each sample. […]

| SMILES | increase in mean survival / longevity (Drosophila melanogaster) [%] | increase in GCLc enzyme (GCLc enzyme) [%] | increase in glutathione (Glutathione) [%] | mean survival (Drosophila melanogaster; control 36 days) [days] |
| --- | --- | --- | --- | --- |
| COC1=C(OC)C(=O)C(C/C=C(\C)CC/C=C(\C)CC/C=C(\C)CC/C=C(\C)CC/C=C(\C)CC/C=C(\C)CC/C=C(\C)CC/C=C(\C)CC/C=C(\C)CCC=C(C)C)=C(C)C1=O [Coenzyme Q10] | 11 |  |  |  |
| Oc1ccc(C=Cc2cc(O)cc(O)c2)cc1 [Resveratrol] | 39 | 1 | 100 | 50 |
| CC(=O)N[C@@H](CS)C(=O)O [NAC, N acetyl cysteine] | 28 |  |  |  |
| N[C@@H](CCC(=O)N[C@@H](CS)C(=O)NCC(=O)O)C(=O)O [Glutathione] | 11 | 7 | 154 |  |
